Measured values published in patent publication US10556856B2, “Antibacterial agents” (Rutgers, The State University of New Jersey, priority 2014, dated 2020).
“And” between values parts separate entries of the source, which are not always exact repeats. Equal entries are not always repeated. Structures can show the parent of a compound that is named as a salt. Where two headings read alike, the source gives them in different places.

Experiments:
E. coli = experiment: Test A MIC/MBC study; assay type: cell-based; settings: for MBC: killing of ≥99.9% of the organisms; for MIC: tryptic soy broth, 37° C. overnight
Procedure: (§1) MIC/MBC studies were conducted according to a modified literature procedure (LaDow JE, et al. European Journal of Medicinal Chemistry. 46 (2011) 4219-4226). In brief, stock amphiphile solutions were made in 1 mL double-distilled water (0.1M C8 and C10; 0.02M C12), filter sterilized, and sonicated for five minutes. Stocks were then diluted 100× in tryptic soy broth and vortexed. This broth was serially diluted in fresh broth and 100 μL “doped” broth was transferred to 96-well microtiter plate. 10^6 Cfu/mL inoculums were prepared for E. coli and S. aureus. 100 μL inoculum was added to the wells. Plates were put on a shaker for 5 minutes to mix inoculum and broth. Plates were incubated at 37° C. overnight. Wells were visually analyzed the next day by growth or no growth. After MICs were determined, aliquots were taken from each well, plated, and incubated to determine the MBC values for each compound. MBC values were defined as killing of ≥99.9% of the organisms, which corresponds to a 3-log reduction.

S. aureus [1] = experiment: Test A MIC/MBC study; assay type: cell-based; settings: Staphylococcus aureus; for MBC: killing of ≥99.9% of the organisms; for MIC: tryptic soy broth, 37° C. overnight
Procedure: as §1

[2] = test system: Escherichia coli ATCC 43895; experiment: Broth microdilution assay
[3] = test system: Listeria monocytogenes ATCC 49594; experiment: Broth microdilution assay
[4] = test system: Staphylococcus aureus Rosenbach ATCC 29213; experiment: Broth microdilution assay
[5] = test system: Pseudomonas aeruginosa ATCC 14213; experiment: Broth microdilution assay
S. epidermidis = experiment: CLSI/NCCLS broth microdilution assay; assay type: cell-based
B. neotomae = experiment: CLSI/NCCLS broth microdilution assay; assay type: cell-based; settings: 18 hours
B. cepacia = experiment: CLSI/NCCLS broth microdilution assay; assay type: cell-based; settings: 18 hours
Y. pseudotuberculosis = assay type: cell-based; settings: 18 hours
A. baumannii = experiment: CLSI/NCCLS broth microdilution assay; assay type: cell-based; settings: 18 hours
K. pneumoniae = experiment: CLSI/NCCLS broth microdilution assay; assay type: cell-based; settings: 18 hours
P. aeruginosa = experiment: CLSI/NCCLS broth microdilution assay; assay type: cell-based; settings: 18 hours
S. aureus [6] = assay type: cell-based
L. pneumophilia = experiment: CLSI/NCCLS broth microdilution assay; assay type: cell-based; settings: 18 hours
B. cereus = experiment: CLSI/NCCLS broth microdilution assay; assay type: cell-based
E. faecium = experiment: CLSI/NCCLS broth microdilution assay; assay type: cell-based
[7] = Escherichia coli, read-out: MIC
[8] = E. coli (G−), TSB, 37° C., 24 h
[9] = L. monocytogenes (G+), TSB, 37° C., 24 h
[10] = S. aureus (G+), TSB, 37° C., 24 h
[11] = P. aeruginosa (G−), TSB, 37° C., 24 h
[12] = Escherichia coli, ATCC43895, 24 h
[13] = Listeria monocytogenes, ATCC49594, 24 h
[14] = Staphylococcus aureus, ATCC29213, 24 h
[15] = Pseudomonas aeruginosa, ATCC14213, 24 h

SMILES	MBC (E. coli; Escherichia coli)	MIC (E. coli; [7])	MBC (S. aureus [1])	MIC (S. aureus [1])	MIC [2, 8] [µM]	MIC [3, 9]	MIC [4, 10]	MIC [5, 11] [µM]	MIC (B. neotomae) [µg/mL]	MIC (B. cepacia) [µg/mL]	MIC (Y. pseudotuberculosis) [µg/mL]	MIC (A. baumannii) [µg/mL]	Vero Cell Cytotoxicity (Vero Cell) [µg/mL]	MIC (K. pneumoniae) [µg/mL]	MIC (P. aeruginosa) [µg/mL]	other results
CCCNC(=O)[C@H](OC(=O)CCCCCCCN)[C@@H](OC(=O)CCCCCCCN)C(=O)NCCC.Cl.Cl [Amphiphile B7]	1000 µM and 588 µg/mL	1000 µM and 588 µg/mL	500 µM and 294 µg/mL	500 µM and 294 µg/mL	1000	500 µM	500 µM	1000								
CCCNC(=O)[C@H](OC(=O)CCCCCCCCCN)[C@@H](OC(=O)CCCCCCCCCN)C(=O)NCCC.Cl.Cl [Amphiphile B9]	500 µM and 322 µg/mL	500 µM and 322 µg/mL	250 µM and 171 µg/mL	125 µM and 80.5 µg/mL	500	125 µM	125 µM	250								
CCCNC(=O)[C@H](OC(=O)CCCCCCCCCCCN)[C@@H](OC(=O)CCCCCCCCCCCN)C(=O)NCCC.Cl.Cl [Amphiphile B11]	400 µM and 280 µg/mL	400 µM and 280 µg/mL	50 µM and 35 µg/mL	25 µM and 17.5 µg/mL	100	12.5 µM	25 µM	50	25	>50	>50	>50	50	>50	>50	MIC (S. epidermidis; S. epidermidis, 18 hours): 25 µg/mL; MIC (S. aureus [6]; S. aureus, 18 hours): 25 µg/mL; MIC (L. pneumophilia): >50 µg/mL; MIC (B. cereus; B. cereus, 18 hours): 50 µg/mL; MIC (E. faecium; E. faecium, 18 hours): 25 µg/mL
CCCCCCCCC(=O)OC(C(=O)NCCN)C(OC(=O)CCCCCCCC)C(=O)NCCN.Cl.Cl (stereo not shown) [Amphiphile G7]					63	63 μM and 62.5* μM	63 μM and 62.5* μM	125	3.125	>50	12.5	>50	>50	50	25	MIC (S. epidermidis): 12.5 µg/mL; MIC (B. cereus; B. cereus, 18 hours): 6.25 µg/mL; MIC (E. faecium; E. faecium, 18 hours): 6.25 µg/mL
CCCCCCCCCCC(=O)OC(C(=O)NCCN)C(OC(=O)CCCCCCCCCC)C(=O)NCCN.Cl.Cl (stereo not shown) [Amphiphile G9]					125	250 µM	500 µM	250	3.125	>50	6.25	>50	50	>50	>50	MIC (S. epidermidis): 6.25 µg/mL; MIC (S. aureus [6]): 6.25 µg/mL; MIC (L. pneumophilia): 25 µg/mL; MIC (B. cereus): 6.25 µg/mL; MIC (E. faecium): 6.25 µg/mL
CCCCCCCCCCCCCCCC[N+](C)(C)C [CTAB, Cetyltrimethylammonium bromide, reference compound]																MIC [2, 12]: 32 µM; MIC [3, 13]: 8 µM; MIC [4, 14]: 4 µM; MIC [5, 15]: 16 µM
CCCCCCCCCCCCOS(=O)(=O)[O-].[Na+] [SDS, Sodium dodecyl sulfate, reference compound]																MIC [2, 12]: > 2000 µM; MIC [3, 13]: 2000 µM; MIC [4, 14]: 1000 µM; MIC [5, 15]: > 2000 µM
[H]/N=C(/N)N[C@H]1[C@H](O)[C@@H](O)[C@H](O[C@@H]2O[C@@H](C)[C@](O)(C=O)[C@H]2O[C@@H]2O[C@@H](CO)[C@H](O)[C@@H](O)[C@@H]2NC)[C@@H](N/C(N)=N\[H])[C@@H]1O [Streptomycin Sulfate, reference compound]	< 100 µg/mL	< 100 µg/mL	< 100 µg/mL	< 100 µg/mL												MIC (E. coli): <100 (<100) μg/mL
